Measured values taken from ChEMBL document CHEMBL4118098, “Discovery of DS28120313 as a potent orally active hepcidin production inhibitor: Design and optimization of novel 4,6-disubstituted indazole derivatives” (Bioorg Med Chem Lett, 2017).

Tested on: HepG2
Experiment: Inhibition of human recombinant BMP6-stimulated hepcidin mRNA expression in human HepG2 cells after 6 hrs by qRT-PCR analysis
Type: functional, cell-based
Details: HepG2, 6 h

Row | IC50 [nM] | Structure (SMILES)
1 | 3100 | Cc1[nH]nc(C2CC2)c1-c1ccc2c(-c3ccc[nH]3)n[nH]c2c1
2 | 2000 | CNC(=O)c1n[nH]c(C)c1-c1cc(NC(=O)OC)c2cn[nH]c2c1
3 | 3900 | COCc1n[nH]c(C)c1-c1cc(NC(=O)OC)c2cn[nH]c2c1
4 | 190 | COC(=O)Nc1cc(-c2c(C(C)C)n[nH]c2C)cc2[nH]ncc12
5 | 130 | COC(=O)Nc1cc(-c2c(C(=O)OC)n[nH]c2C)cc2[nH]ncc12
6 | 410 | CC(=O)Nc1n[nH]c2cc(-c3c(C4CC4)n[nH]c3C)ccc12
7 | 1000 | Cc1[nH]nc(C2CC2)c1-c1cc(NC(=O)C2CC2)c2cn[nH]c2c1
8 | 190 | CC(=O)Nc1cc(-c2c(C3CC3)n[nH]c2C)cc2[nH]ncc12
9 | 450 | CCC(=O)Nc1cc(-c2c(C3CC3)n[nH]c2C)cc2[nH]ncc12
10 | 2700 | Cc1[nH]nc(C2CC2)c1-c1cc(N)c2cn[nH]c2c1
11 | 170 | Cc1[nH]nc(C2CC2)c1-c1ccc2c(-c3ccc(N4CCNCC4)nc3)n[nH]c2c1
12 | 180 | CCc1n[nH]c(C)c1-c1cc(NC(=O)OC)c2cn[nH]c2c1
13 | 150 | COC(=O)Nc1cc(-c2c(C)n[nH]c2C)cc2[nH]ncc12
14 | 320 | COC(=O)Nc1cc(-c2c(-c3ccccn3)n[nH]c2C)cc2[nH]ncc12
15 | 2600 | Cc1[nH]nc(C2CC2)c1-c1ccc2c(-c3ccncc3)n[nH]c2c1
16 | 4100 | Cc1[nH]nc(C2CC2)c1-c1ccc2cn[nH]c2c1
17 | 2200 | CNC(=O)c1cc(-c2c(C3CC3)n[nH]c2C)cc2[nH]ncc12
18 | 2300 | Cc1[nH]nc(C2CC2)c1-c1ccc2c(-c3cccnc3)n[nH]c2c1
19 | 3000 | COC(=O)N(C)c1cc(-c2c(C3CC3)n[nH]c2C)cc2[nH]ncc12
20 | > 10000 | COC(=O)Nc1cc(-c2c(C(=O)O)n[nH]c2C)cc2[nH]ncc12
21 | 1100 | COC(=O)Nc1cc(-c2c(-c3ccccc3)n[nH]c2C)cc2[nH]ncc12
22 | 660 | CCOC(=O)Nc1cc(-c2c(C3CC3)n[nH]c2C)cc2[nH]ncc12
23 | 340 | CNC(=O)Nc1cc(-c2c(C3CC3)n[nH]c2C)cc2[nH]ncc12
24 | 1200 | Cc1[nH]nc(C2CC2)c1-c1cc(NS(C)(=O)=O)c2cn[nH]c2c1
25 | 1900 | Cc1[nH]nc(C2CC2)c1-c1cc(NC(=O)c2ccc(N3CCN(C)CC3)cc2)c2cn[nH]c2c1
